From patent publication US20040220268A1, “Compound that directly stimulates phospholipase C activity” (priority 2003, published 2004)

Tested on: human neutrophils
Assay: Superoxide anion generation (lucigenin chemiluminescence)
Format: cell-based
Conditions: up to 50 μM
Description: Superoxide anion generation was measured by monitoring chemiluminescence in the presence of the chemiluminogenic probe lucigenin. Prepared neutrophils were stimulated with m-3M3FBS or o-3M3FBS at 2.5, 5, 10, 15, 20, 25, and 50 μM and lucigenin (40 μM) was then added. Luminescence changes were measured using a Luminoskan. Data are presented as means ±S. E. M. of four independent experiments (A). Structures of m-3M3FBS (2,4,6-Trimethyl-N-(meta 3-trifluoromethyl-phenyl)-benzenesulfonamide) and o-3M3FBS (2,4,6-Trimethyl-N-(ortho 3-trifluoromethyl-phenyl)-benzenesulfonamide) (B).
Superoxide anion production was measured by monitoring chemiluminescence in the presence of the chemiluminogenic probe lucigenin (Bureau et al., 2001). Prepared neutrophils were plated in 96 wells and stimulated with chemicals at concentrations of 2.5, 5, 10, 15, 20, 25 and 50 μM, and then the lucigenin (40 μM) was added. Luminescence, measured with a Luminoskan (Labsystems, Inc., Helsinki, Finland), was integrated over 10 s intervals for a total of 3 min at room temperature.

Cc1cc(C)c(S(=O)(=O)Nc2ccccc2C(F)(F)F)c(C)c1 [o-3M3FBS, 2,4,6-Trimethyl-N-(ortho 3-trifluoromethyl-phenyl)-benzenesulfonamide, reference compound]
effect on superoxide generation: did not affect
